Data taken from US20230127046A1, “G9a INHIBITOR” (RIKEN, priority 2019, published 2023).

target: T1, recombinant human G9a protein (Homo sapiens, UniProt Q96KQ7); assay: G9a inhibitory activity test (ALPHA); type: biochemical; conditions: biotinylated histone H3 peptide (1-21), SAM, read-out: Inhibitory activity (G9a IC50 value)
T1 construct: purchased BPS Bioscience Inc. #51001
T1 sequence (Q96KQ7 785-1210 limits assumed): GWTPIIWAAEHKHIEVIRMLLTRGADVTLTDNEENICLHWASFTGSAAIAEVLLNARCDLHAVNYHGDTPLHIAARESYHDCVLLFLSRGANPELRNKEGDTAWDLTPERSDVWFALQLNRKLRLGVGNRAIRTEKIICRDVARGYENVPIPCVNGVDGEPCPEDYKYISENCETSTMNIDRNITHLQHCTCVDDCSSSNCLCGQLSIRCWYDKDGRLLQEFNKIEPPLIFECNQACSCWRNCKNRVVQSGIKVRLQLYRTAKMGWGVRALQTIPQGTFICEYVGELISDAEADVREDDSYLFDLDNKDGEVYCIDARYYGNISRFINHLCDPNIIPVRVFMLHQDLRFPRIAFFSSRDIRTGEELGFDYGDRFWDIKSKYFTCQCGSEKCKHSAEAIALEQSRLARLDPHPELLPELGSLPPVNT
Experimental: The G9a inhibitory activity of each compound was evaluated by measuring the enzymatic activity of G9a by amplified luminescence proximity homogeneous assay (ALPHA). First, 7.5 μL of a dilution of recombinant human G9a protein (BPS Bioscience Inc., #51001) diluted to 0.05 to 0.1 nM with a Tris buffer solution (50 mM Tris-HCl [pH 9.0], 50 mM NaCl, 0.01% Tween-20, 1 mM DTT), and 0.5 μL of the test compound were added to each well of a 384-well microplate (AlphaPlate-384 Shallow Well, PerkinElmer, Inc., #6008359), mixed by vortex, and incubated at room temperature for 10 minutes. 500 nM biotinylated histone H3 peptide (1-21) (AnaSpec Inc., #61702) and 150 μM SAM (Sigma-Aldrich Co. LLC, #A7007) were mixed at 1:1 in advance, and 2 μL of the mixture was added to each well, mixed by vortex, and then incubated at room temperature for 1 hour. AlphaLISA anti-H3K9me2 acceptor beads (PerkinElmer, Inc., #AL117C) and AlphaScreen streptavidin donor beads (PerkinElmer, Inc., #6760002B) were each diluted with an epigenetic buffer (PerkinElmer, Inc., AlphaLISA Epigenetics Buffer Kit #AL008C) to a final concentration of […] after addition. These dilutions were added to the reaction solution in the dark and incubated at room temperature for 1 hour in the dark. Then, measurement was performed using the EnSpire Alpha plate reader (PerkinElmer, Inc., Waltham, Mass., USA). The G9a inhibitory activity of the test compound was calculated as a compound concentration necessary for suppressing G9a enzymatic activity by 50% (IC50 value), by determining the percent inhibition of the compound when the value of a control without the addition of the compound was defined as 0% and the value of a control without the addition of the enzyme was defined as 100%.

Compound | IC50
CCCCC(NC(=O)c1[nH]c2c(c1C)C(=O)CC(C)(C)C2)C(=O)NCc1ccccc1Cl (centres unmarked) [Example 1-41] | ≥ 200 nM
CCCCC(NC(=O)c1[nH]c2c(c1C)C(=O)CC(C)(C)C2)C(=O)Nc1cccc2c1CCC2 (centres unmarked) [Example 1-34] | ≥ 200 nM
CCCCC(NC(=O)c1[nH]c2c(c1C)C(=O)CC(C)(C)C2)C(=O)NCc1ccc(CCCO)cc1 (centres unmarked) [Example 1-1, N-[1-[[4-(3-hydroxypropyl)phenyl]methylamino]-1-oxohexan-2-yl]-3,6,6-trimethyl-4-oxo-5,7-dihydro-1H-indole-2-carboxamide] | ≥ 200 nM
CCCCC(NC(=O)c1[nH]c2c(c1C)C(=O)CC(C)(C)C2)C(=O)Nc1ccccc1SC (centres unmarked) [Example 1-2] | 50 to 200 nM
CCCCC(NC(=O)c1[nH]c2c(c1C)C(=O)CC(C)(C)C2)C(=O)Nc1cc(OC)c(OC)c(OC)c1 (centres unmarked) [Example 1-109] | ≥ 200 nM
CCCCC(NC(=O)c1[nH]c2c(c1C)C(=O)CC(C)(C)C2)C(=O)NCc1ccc(C#N)cc1 (centres unmarked) [Example 1-52] | ≥ 200 nM
CCCCC(NC(=O)c1[nH]c2c(c1C)C(=O)CC(C)(C)C2)C(=O)NCc1ccc(OCCN(C)C)cc1 (centres unmarked) [Example 1-18] | 50 to 200 nM

Second part, the compound after the results:

IC50 | Compound
≥ 200 nM | CCCCC(NC(=O)c1[nH]c2c(c1C)C(=O)CC(C)(C)C2)C(=O)Nc1ccc(C#N)cc1 (centres unmarked) [Example 1-9]
≥ 200 nM | CCCCC(NC(=O)c1[nH]c2c(c1C)C(=O)CC(C)(C)C2)C(=O)Nc1ccccc1OC (centres unmarked) [Example 1-11]
< 50 nM | CCCCC(NC(=O)c1[nH]c2c(c1C)C(=O)CC(C)(C)C2)C(=O)Nc1cccc(CN(CC)CC)c1 (centres unmarked) [Example 1-108]
≥ 200 nM | CCCCC(NC(=O)c1[nH]c2c(c1C)C(=O)CC(C)(C)C2)C(=O)NCc1cccc(OC)c1 (centres unmarked) [Example 1-45]
< 50 nM | CCCCC(NC(=O)c1[nH]c2c(c1C)C(=O)CC(C)(C)C2)C(=O)Nc1ccc2[nH]cc(CN(C)C)c2c1 (centres unmarked) [Example 1-100]

same assay, conditions: read-out: Inhibitory activity (G9a IC50)

Compound | IC50
CCCC[C@H](NC(=O)c1[nH]c2c(c1C)C(=O)CC(C)(C)C2)c1nc2ccc(OCCN3CCCC3)cc2[nH]1 [Example 37-3] | ≥ 200 nM
Cc1c(C(=O)NC(CCC2CC2)c2nc3cc(CN(C)C)ccc3n2C)[nH]c2c1C(=O)CC(C)(C)C2 (centres unmarked) [Example 32, N-[3-cyclopropyl-1-[5-[(dimethylamino)methyl]-1-methylbenzoimidazol-2-yl]propyl]-3,6,6-trimethyl-4-oxo-5,7-dihydro-1H-indole-2-carboxamide] | ≥ 200 nM
CCCC[C@H](NC(=O)c1[nH]c2c(c1C)C(=O)CC(C)(C)C2)c1nc2ccc(OCCN(C)C)cc2[nH]1 [Example 37-4] | ≥ 200 nM
CCCC[C@H](NC(=O)c1[nH]c2c(c1C)C(=O)CC(C)(C)C2)c1nc2ccc(OCCCN3CCCCC3)cc2[nH]1 [Example 34-2] | 50 to 200 nM
CCCCC(NC(=O)c1[nH]c2c(c1C)C(=O)CC(C)(C)C2)C(=O)NCc1ccc(CN2CCC2)cc1 (centres unmarked) [Example 18-14] | < 50 nM
Cc1c(C(=O)NC(CCC2CC2)C(=O)N2CCc3ccc(CN4CCCCC4)cc32)[nH]c2c1C(=O)CC(C)(C)C2 (centres unmarked) [Example 1-146] | ≥ 200 nM
CCCC[C@H](NC(=O)c1[nH]c2c(c1CC)C(=O)CC(C)(C)C2)C(=O)N[C@@H](CO)c1ccccc1 [Example 6-46] | 50 to 200 nM
Cc1c(C(=O)NC(CCC2CC2)c2nc3c(CN(C)C4CCN(C)CC4)cccc3n2C)[nH]c2c1C(=O)CC(C)(C)C2 (centres unmarked) [Example 31-7] | ≥ 200 nM
CCCCC(NC(=O)c1[nH]c2c(c1C)C(=O)CC(C)(C)C2)C(=O)NCc1ccc(CCN)cc1 (centres unmarked) [Example 24-3] | < 50 nM
CCCCC(NC(=O)c1[nH]c2c(c1C)C(=O)CC(C)(C)C2)C(=O)Nc1ccc2c(c1)CCNC2 (centres unmarked) [Example 25-2] | 50 to 200 nM
Cc1c(C(=O)NC(CCC2CC2)C(=O)N2CCc3ccc(CN4CCCC4)cc32)[nH]c2c1C(=O)CC(C)(C)C2 (centres unmarked) [Example 1-145] | ≥ 200 nM
CCCC[C@H](NC(=O)c1[nH]c2c(c1C)C(=O)CC(C)(C)C2)c1nc2ccc(OCCN3CCCCC3)cc2[nH]1 [Example 37-1, (S)-3,6,6-trimethyl-4-oxo-N-(1-(6-(2-(piperidin-1-yl)ethoxy)-1H-benzo[d]imidazol-2-yl)pentyl)-4,5,6,7-tetrahydro-1H-indole-2-carboxamide] | ≥ 200 nM
CCCCC(NC(=O)c1[nH]c2c(c1C)C(=O)CC(C)(C)C2)C(=O)NCc1ccc(CCCN)cc1 (centres unmarked) [Example 19, N-[1-[[4-(3-aminopropyl)phenyl]methylamino]-1-oxohexan-2-yl]-3,6,6-trimethyl-4-oxo-5,7-dihydro-1H-indole-2-carboxamide] | < 50 nM

Continued, values first:

IC50 | Compound
50 to 200 nM | CCCCC(NC(=O)c1[nH]c2c(c1C)C(=O)CC(C)(C)C2)C(=O)Nc1ccc(OCCN)nc1 (centres unmarked) [Example 24-4]
50 to 200 nM | Cc1c(C(=O)NC(CCC2CC2)C(=O)NCc2ccccc2)[nH]c2c1C(=O)CC(C)(C)C2 (centres unmarked) [Example 6-18]
< 50 nM | CCCC[C@H](NC(=O)c1[nH]c2c(c1C)C(=O)CC(C)(C)C2)C(=O)Nc1ccc(OC2CCN(C)CC2)nc1 [Example 6-31]
< 50 nM | Cc1c(C(=O)NC(CCC2CC2)C(=O)NCc2cccc(CN(C)C)c2)[nH]c2c1C(=O)CC(C)(C)C2 (centres unmarked) [Example 1-148]
≥ 200 nM | Cc1c(C(=O)NC(C(=O)Nc2ccc(OC3CCN(C)CC3)nc2)c2ccccc2Cl)[nH]c2c1C(=O)CC(C)(C)C2 (centres unmarked) [Example 6-28]
≥ 200 nM | CSCC[C@H](NC(=O)c1[nH]c2c(c1C)C(=O)CC(C)(C)C2)C(=O)Nc1ccccc1 [Example 6-90]
≥ 200 nM | Cc1c(C(=O)NC(CCC2CC2)C(=O)Nc2ccc(Cl)nc2)[nH]c2c1C(=O)CC(C)(C)C2 (centres unmarked) [Example 6-7]
50 to 200 nM | Cc1c(C(=O)NC(CCC2CC2)C(=O)Nc2ccc(F)nc2)[nH]c2c1C(=O)CC(C)(C)C2 (centres unmarked) [Example 6-12]
≥ 200 nM | CCCCC(NC(=O)c1[nH]c2c(c1C)C(=O)CC(C)(C)C2)C(=O)NCc1ccc(C(=O)N(C)C)cc1 (centres unmarked) [Example 20-2]
< 50 nM | COc1ccc(NC(=O)C(CCC2CC2)NC(=O)c2ccc(Nc3ccnc(C)c3)cc2)cn1 (centres unmarked) [Example 6-63]
≥ 200 nM | COc1ccc(NC(=O)C(CCC2CC2)NC(=O)c2sc(-c3cccnc3)nc2C(F)(F)F)cn1 (centres unmarked) [Example 6-60]
≥ 200 nM | COc1ccc(NC(=O)C(CCC2CC2)NC(=O)c2ccc(NC3CCN(C)CC3)cc2)cn1 (centres unmarked) [Example 6-59]
50 to 200 nM | CCCCC(NC(=O)c1ccc(Nc2ccncc2)cc1)C(=O)Nc1ccc(OC)cc1 (centres unmarked) [Example 9-2]
≥ 200 nM | COc1ccc(NC(=O)C(CCC2CC2)NC(=O)c2nc(-c3ccccc3)sc2C)cn1 (centres unmarked) [Example 6-54]
50 to 200 nM | CCc1ncccc1NC(=O)C(CCC1CC1)NC(=O)c1[nH]c2c(c1C)C(=O)CC(C)(C)C2 (centres unmarked) [Example 6-6]
≥ 200 nM | Cc1c(C(=O)NC(CCC2CC2)C(=O)N2CCc3c(CN4CCOCC4)cccc32)[nH]c2c1C(=O)CC(C)(C)C2 (centres unmarked) [Example 1-144]
≥ 200 nM | Cc1c(C(=O)NC(CCC2CC2)C(=O)Nc2ccc(C#N)nc2)[nH]c2c1C(=O)CC(C)(C)C2 (centres unmarked) [Example 6-13]
< 50 nM | CCCCC(NC(=O)c1ccc(Nc2ccncc2)cc1)C(=O)Nc1ccc(OC2CCN(C)CC2)nc1 (centres unmarked) [Example 11-5]
≥ 200 nM | Cc1c(C(=O)N[C@H](CCC2CC2)C(=O)N[C@@H](C)c2ccccc2)[nH]c2c1C(=O)CC(C)(C)C2 [Example 13-2, N-((R)-4-Cyclopropyl-1-oxo-1-(((S)-1-phenylethyl)amino)butan-2-yl)-3,6,6-trimethyl-4-oxo-4,5,6,7-tetrahydro-1H-indole-2-carboxamide]
≥ 200 nM | Cc1c(C(=O)NC(CCC2CC2)C(=O)N2CCc3cc(O)ccc32)[nH]c2c1C(=O)CC(C)(C)C2 (centres unmarked) [Example 1-132]
< 50 nM | COc1ccc(NC(=O)C(CCC2CC2)NC(=O)c2ccc(Nc3ccncc3)c(C)c2)cn1 (centres unmarked) [Example 6-57]
50 to 200 nM | CCCCC(NC(=O)c1[nH]c2c(c1C)C(=O)CC(C)(C)C2)C(=O)Nc1ccc(OC2CNC2)cc1 (centres unmarked) [Example 26-6]
50 to 200 nM | CCCCC(NC(=O)c1sc(-c2ccccc2)nc1C(F)(F)F)C(=O)Nc1ccc(OC2CCN(C)CC2)nc1 (centres unmarked) [Example 11-3]
≥ 200 nM | COc1ccc(NC(=O)C(CCC2CC2)NC(=O)c2ccc(-c3ccncc3)cc2C)cn1 (centres unmarked) [Example 6-50]
< 50 nM | COc1ccc(NC(=O)C(CCC2CC2)NC(=O)c2ccc(-n3ccc4cnccc43)cc2C)cn1 (centres unmarked) [Example 6-70]
